{"source": "paper PMC4587935", "about": "“Structure and Sialyllactose Binding of the Carboxy-Terminal Head Domain of the Fibre from a Siadenovirus, Turkey Adenovirus 3” (PLoS ONE, 2015)", "key": {"[1]": {"tested_on": "virulent TAdV-3 fibre head", "assay": "Saturation transfer difference NMR (STD-NMR), virulent variant", "format": "binding, turkey adenovirus 3 (TAdV-3)", "details": "1.5 mM ligand, 15 μM protein, phosphate pH 7.7, 298 K", "method": "(§1) Saturation transfer difference nuclear magnetic resonance spectroscopy (STD-NMR) experiments were performed at 298 K in an AVANCE 500 MHz spectrometer (Bruker, Rivas Vaciamadrid, Spain) equipped with a 5 mm inverse probe head. STD experiments were performed in fully deuterated 10 mM potassium phosphate pH 7.7. Samples contained 1.5 mM of either 3'- or 6'-sialyllactose and 15 μM of either the virulent or the avirulent versions of TAdV-3 fibre head. The protein was saturated on-resonance at 0.5 ppm and off-resonance at 100 ppm with a train of Gaussian-shaped pulses of 50 ms each, totalling an irradiation time of 2 s. A T2 relaxation filter consisting of a 15 ms 5 kHz spin-lock was used to reduce the protein background signals. STD spectra were obtained by subtracting the on-resonance spectra from the off-resonance spectra. STD intensities were measured comparing each STD spectrum with the correspondent off-resonance spectrum and normalizing to the ligand peak receiving the highest degree of saturation (in all cases, the 5''-N-acetyl). The resonances of 3'- or 6'-sialyllactose were assigned by standard procedures (^1H-^1H TOCSY 70 ms, ^1H-^1H ROESY 600 ms and phase-sensitive ^1H-^13C HSQC). Data were analyzed with TOPSPIN (Bruker) and figures were made with MESTRENOVA (Mestrelab Research, Santiago de Compostela, Spain)."}, "[2]": {"tested_on": "avirulent TAdV-3 fibre head", "assay": "Saturation transfer difference NMR (STD-NMR), avirulent variant", "format": "binding, turkey adenovirus 3 (TAdV-3)", "details": "1.5 mM ligand, 15 μM protein, phosphate pH 7.7, 298 K", "method": "as §1"}, "[3]": {"tested_on": "His-tagged TAdV-3 fibre head protein", "assay": "Glycan microarray binding assay", "set-up": "species or system turkey adenovirus 3 (TAdV-3)", "details": "for inhibition of fibre head binding to the glycan microarray: in the presence of 100 mM sugar; for fluorescence intensity on glycan microarray: binding threshold approximately 1,600 RFU (five times background)", "method": "The proteins were profiled on neoglycoconjugate microarrays to identify potential glycan ligands for TAdV-3 fibre head proteins. The microarrays were constructed as previously described and presented 71 different simple to complex glycans on glycoproteins or attached to protein backbones through linkers (S1 Table). Several viral protein concentrations were titrated in Tris-buffered saline supplemented with Ca^2+ and Mg^2+ ions (TBS; 20 mM Tris-HCl, 100 mM NaCl, 1 mM CaCl2, 1 mM MgCl2, pH 7.2) and with 0.05% Tween 20 (TBS-T). It was determined that 10 μg/ml in TBS-T was the concentration for optimal signal to noise ratio. Similarly, the concentration of the anti-6XHis IgG-CF640R (Sigma Aldrich, Tres Cantos, Spain) monoclonal antibody for detection of viral protein binding was optimized and a 1 in 750 dilution in TBS-T was subsequently used.\nTwo-step incubations were carried out as previously described with minor modifications. First, the viral proteins were incubated on the microarray slides for 1 h at 23°C and 4 rpm. The microarray slides and gaskets were then separated while submerged under TBS-T, washed 3 times in TBS-T for 2 min each with gentle agitation in a Coplin jar, with a final 2 min wash in TBS. After centrifuging to dry the slides (1,500 rpm, 5 min), all subsequent steps were carried out in the dark. The microarray slides were incubated with the fluorescently labelled anti-6XHis IgG as in the first step, washed and dried by centrifugation and scanned immediately on an Agilent G2505 microarray scanner using the Cy5 channel (633 nm excitation, 80% PMT, 5 mm resolution). All experiments were carried out in triplicate and binding inhibition assays were performed in parallel in the presence of 100 mM galactose and lactose to verify specific binding. Data extraction and analysis was carried out as previously described. Binding was taken as above an experimental threshold of five times the background, which was approximately 1,600 relative fluorescence units (RFU) in this case."}, "[4]": {"target": "TAdV-3 fibre head (avirulent) (Turkey adenovirus 3, UniProt A0ABF7PFF5)", "assay": "Isothermal titration calorimetry (ITC), avirulent fibre head", "format": "binding, turkey adenovirus 3 (TAdV-3)", "details": "25°C", "method": "(§2) Isothermal titration calorimetry (ITC) was performed at 25°C with a Microcal VP-ITC microcalorimeter (GE Healthcare, Madrid, Spain). The proteins were exhaustively dialyzed against the appropriate buffer (10 mM MES-NaOH pH 6.0 or 20 mM Tris-HCl, 100 mM NaCl pH 7.2), and sialyllactose solutions were prepared in the final dialysate. Titrations were performed by stepwise injections of the 3'- or 6'-sialyllactose-containing solution (21–40 mM) into the reaction cell loaded with the protein at concentrations of 78–474 μM. When required, a second set of injections followed the first one after refilling the injection pipette with the same sialyllactose solution. The CONCAT32 (GE Healthcare) program was used to concatenate the raw data of both series. The heat of ligand dilution was determined separately and subtracted from the total heat produced following each injection. Protein concentrations were determined spectrophotometrically at 280 nm using the predicted monomeric molar extinction coefficient (10,095 OD cm^-1 M^-1). Titration data were analyzed with the ORIGIN software (GE Healthcare)."}, "[5]": {"target": "TAdV-3 fiber head mutant K421A (avirulent context)", "details": "ITC, 25°C, pH 6.0; n.o. = no binding observed"}, "[6]": {"target": "TAdV-3 fiber head mutant R368A (avirulent context) (Turkey adenovirus 3, UniProt A0ABF7PFF5, R368A)", "assay": "biochemical", "format": "binding, turkey adenovirus 3 (TAdV-3)"}, "[7]": {"target": "TAdV-3 fiber head mutant K439A (avirulent context) (Turkey adenovirus 3, UniProt A0ABF7PFF5, K439A)", "assay": "biochemical", "format": "binding, turkey adenovirus 3 (TAdV-3)"}, "[8]": {"target": "TAdV-3 fiber head mutant E392A (avirulent context) (Turkey adenovirus 3, UniProt A0ABF7PFF5, E392A)", "assay": "biochemical", "format": "binding, turkey adenovirus 3 (TAdV-3)"}, "[9]": {"target": "TAdV-3 fiber head mutant N407A (avirulent context) (Turkey adenovirus 3, UniProt A0ABF7PFF5, N407A)", "assay": "biochemical", "format": "binding, turkey adenovirus 3 (TAdV-3)"}, "[10]": {"target": "T1, TAdV-3 fibre head (virulent) (Turkey adenovirus 3, UniProt Q9YUQ4)", "T1 sequence (Q9YUQ4 304-454)": "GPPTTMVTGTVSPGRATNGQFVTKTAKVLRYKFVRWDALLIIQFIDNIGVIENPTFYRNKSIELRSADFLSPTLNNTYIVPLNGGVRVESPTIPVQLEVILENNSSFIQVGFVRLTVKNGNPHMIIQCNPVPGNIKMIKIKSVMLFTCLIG", "assay": "Isothermal titration calorimetry (ITC), virulent fibre head", "format": "binding, turkey adenovirus 3 (TAdV-3)", "details": "25°C", "method": "as §2"}, "[11]": {"details": "pH 6.0, three independent sites per trimer"}, "[12]": {"details": "10 μg/ml protein in TBS-T pH 7.2"}}}
{"compound": "O=C[C@H](O)[C@@H](O)[C@H](O)CO", "note": "[xylose]", "values": [{"measurement": "STD-NMR interaction (saturation transfer)", "setting": "[1]", "result": "no interaction with the proteins could be measured"}, {"measurement": "STD-NMR interaction (saturation transfer)", "setting": "[2]", "result": "no interaction with the proteins could be measured"}]}
{"compound": "OC[C@H]1O[C@@H](O[C@H]2[C@H](O)[C@@H](O)C(O)O[C@@H]2CO)[C@H](O)[C@@H](O)[C@H]1O", "note": "(mixture of isomers) [lactose]", "values": [{"measurement": "inhibition of fibre head binding to the glycan microarray", "setting": "[3]", "result": "No binding inhibition"}]}
{"compound": "CC(=O)NC1C(O)CC(OC2C(O)C(CO)OC(OC3C(CO)OC(O)C(O)C3O)C2O)(C(=O)O)OC1C(O)C(O)CO", "note": "(stereo not shown) [3'-sialyllactose]", "values": [{"measurement": "STD-NMR interaction (saturation transfer)", "setting": "[1]", "result": "saturation transfer was observed"}, {"measurement": "- ΔH", "setting": "[4]; pH 6.0", "result": "4.43 ± 0.01 kcal/mol of sites"}, {"measurement": "- ΔS", "setting": "[4]; pH 6.0", "result": "3.70 ± 0.03 cal/mol of sites/deg"}, {"measurement": "Kd", "setting": "[4]; [11]", "result": "3.64 ± 0.01", "unit": "mM"}, {"measurement": "Kd", "setting": "[4]; pH 7.2", "result": "~24", "unit": "mM"}, {"measurement": "fluorescence intensity on glycan microarray", "setting": "[3]; [12]", "result": "5,000 RFU"}, {"measurement": "Kd", "setting": "[5]", "result": "n.o. ^d"}, {"measurement": "Kd", "setting": "[6]", "result": "3.23 ± 0.03", "unit": "mM"}, {"measurement": "- ΔH", "setting": "[6]; ITC, 25°C, pH 6.0", "result": "3.86 ± 0.02 kcal/mol of sites"}, {"measurement": "- ΔS", "setting": "[6]; ITC, 25°C, pH 6.0", "result": "1.54 ± 0.05 cal/mol of sites/deg"}, {"measurement": "Kd", "setting": "[7]", "result": "3.2 ± 0.2", "unit": "mM"}, {"measurement": "- ΔH", "setting": "[7]; ITC, 25°C, pH 6.0", "result": "3.9 ± 0.1 kcal/mol of sites"}, {"measurement": "- ΔS", "setting": "[7]; ITC, 25°C, pH 6.0", "result": "1.7 ± 0.2 cal/mol of sites/deg"}, {"measurement": "Kd", "setting": "[8]", "result": "~20", "unit": "mM"}, {"measurement": "Kd", "setting": "[9]", "result": "2.77 ± 0.04", "unit": "mM"}, {"measurement": "- ΔH", "setting": "[9]; ITC, 25°C, pH 6.0", "result": "4.66 ± 0.04 kcal/mol of sites"}, {"measurement": "- ΔS", "setting": "[9]; ITC, 25°C, pH 6.0", "result": "3.9 ± 0.1 cal/mol of sites/deg"}, {"measurement": "STD-NMR interaction (saturation transfer)", "setting": "[2]", "result": "saturation transfer was observed"}, {"measurement": "- ΔH", "setting": "[10]; pH 6.0", "result": "1.83 ± 0.03 kcal/mol of sites"}, {"measurement": "- ΔS", "setting": "[10]; pH 6.0", "result": "-4.19 ± 0.07 cal/mol of sites/deg"}, {"measurement": "Kd", "setting": "[10]; [11]", "result": "5.5 ± 0.1", "unit": "mM"}, {"measurement": "Kd", "setting": "[10]; pH 7.2", "result": "~37", "unit": "mM"}]}
{"compound": "transferrin: glycoprotein with 3'- and 6'-sialyl-N-acetyllactosamine terminal structures", "values": [{"measurement": "binding on glycan microarray (in words)", "setting": "[3]; 10 μg/ml protein in TBS-T pH 7.2, threshold five times background", "result": "did not bind"}]}
{"compound": "CC(=O)NC1C(O)CC(OCC2OC(OC3C(CO)OC(O)C(O)C3O)C(O)C(O)C2O)(C(=O)O)OC1C(O)C(O)CO", "note": "(stereo not shown) [6'-sialyllactose]", "values": [{"measurement": "STD-NMR interaction (saturation transfer)", "setting": "[1]", "result": "saturation transfer was observed"}, {"measurement": "Kd", "setting": "[4]; [11]", "result": "~7", "unit": "mM"}, {"measurement": "Kd", "setting": "[4]; pH 7.2", "result": "~23", "unit": "mM"}, {"measurement": "fluorescence intensity on glycan microarray", "setting": "[3]; [12]", "result": "6,100 RFU"}, {"measurement": "STD-NMR interaction (saturation transfer)", "setting": "[2]", "result": "saturation transfer was observed"}, {"measurement": "Kd", "setting": "[10]; [11]", "result": "~20", "unit": "mM"}, {"measurement": "Kd", "setting": "[10]; pH 7.2", "result": "~28", "unit": "mM"}]}
{"compound": "O=C[C@H](O)[C@@H](O)[C@@H](O)[C@H](O)CO", "note": "[galactose]", "values": [{"measurement": "inhibition of fibre head binding to the glycan microarray", "setting": "[3]", "result": "No binding inhibition"}]}
